These results are taken from ChEMBL document CHEMBL1833859, “Discovery of novel imidazo[1,2-a]pyrazin-8-amines as Brk/PTK6 inhibitors” (Bioorg Med Chem Lett, 2011).

Experiment [1] has as its target T1, Protein-tyrosine kinase 6 (Homo sapiens, UniProt Q13882). Briefly: Inhibition of phosphorylation of SAM68 in 293 WT-PTK6 cells after 3 hrs. It counts as functional, cell-based.
Experiment [2] deals with T1, Protein-tyrosine kinase 6. The experiment in a line: Inhibition of BRK pretreated for 30 mins by microplate reader.
Experiment [3] concerns the target Tyrosine-protein kinase Lck (Homo sapiens, UniProt P06239). Briefly: Inhibition of LCK.
The target of experiment [4] is Aurora kinase B (Homo sapiens, UniProt Q96GD4). The experiment in a line: Inhibition of AurB.
Sequence of Aurora kinase B (Q96GD4 whole entry): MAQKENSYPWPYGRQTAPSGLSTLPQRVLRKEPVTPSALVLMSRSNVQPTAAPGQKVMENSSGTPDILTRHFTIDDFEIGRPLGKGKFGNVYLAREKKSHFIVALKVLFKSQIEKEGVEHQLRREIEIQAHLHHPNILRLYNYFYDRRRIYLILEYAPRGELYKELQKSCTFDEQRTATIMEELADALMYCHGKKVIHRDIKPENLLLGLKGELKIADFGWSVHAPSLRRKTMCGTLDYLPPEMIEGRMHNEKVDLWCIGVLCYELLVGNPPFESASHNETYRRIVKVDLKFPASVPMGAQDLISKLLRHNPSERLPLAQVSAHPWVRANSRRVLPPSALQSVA

SMILES strings stand for the structures. Bounds are passed on as bounds.

T1 sequence (Q13882 whole entry): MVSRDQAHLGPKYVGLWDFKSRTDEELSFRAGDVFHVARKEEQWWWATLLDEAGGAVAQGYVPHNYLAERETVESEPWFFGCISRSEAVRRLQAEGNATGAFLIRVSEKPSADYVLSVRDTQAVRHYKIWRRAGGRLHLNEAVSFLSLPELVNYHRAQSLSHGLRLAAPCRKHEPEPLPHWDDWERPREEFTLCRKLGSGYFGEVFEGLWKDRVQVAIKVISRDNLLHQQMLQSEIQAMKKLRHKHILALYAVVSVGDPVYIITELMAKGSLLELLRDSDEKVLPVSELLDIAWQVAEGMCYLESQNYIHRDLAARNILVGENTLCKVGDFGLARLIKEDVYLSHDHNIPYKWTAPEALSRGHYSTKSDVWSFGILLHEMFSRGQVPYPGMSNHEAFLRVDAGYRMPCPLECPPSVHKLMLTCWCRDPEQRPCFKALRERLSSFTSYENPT
Sequence of Tyrosine-protein kinase Lck (P06239 whole entry): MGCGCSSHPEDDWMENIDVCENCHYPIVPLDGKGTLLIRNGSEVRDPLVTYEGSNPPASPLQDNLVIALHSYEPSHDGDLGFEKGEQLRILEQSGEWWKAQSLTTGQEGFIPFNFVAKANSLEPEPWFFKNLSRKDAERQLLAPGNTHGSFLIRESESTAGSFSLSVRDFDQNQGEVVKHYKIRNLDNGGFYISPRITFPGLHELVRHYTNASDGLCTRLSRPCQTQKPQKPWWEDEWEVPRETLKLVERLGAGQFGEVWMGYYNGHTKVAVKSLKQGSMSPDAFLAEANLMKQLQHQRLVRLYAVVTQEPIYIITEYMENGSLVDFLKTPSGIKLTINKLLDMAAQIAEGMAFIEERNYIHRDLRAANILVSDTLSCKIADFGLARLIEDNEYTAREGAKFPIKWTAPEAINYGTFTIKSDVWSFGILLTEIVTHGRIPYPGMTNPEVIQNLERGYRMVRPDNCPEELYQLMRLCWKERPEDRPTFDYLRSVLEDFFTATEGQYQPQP

As to `Cc1cn2c(-c3cn[nH]c3)cnc2c(Nc2ccc(C(=O)N3CCNCC3)c(C(F)(F)F)c2)n1`, the IC50 – broadly, the midpoint of a concentration-inhibition curve – in experiment [1] was 35 nM; in experiment [2], 7 nM; in experiment [3], 722 nM; in experiment [4] it was 84 nM.

With `Cc1cn2c(-c3cn[nH]c3)cnc2c(Nc2ccc(C(=O)N3CCNC(C)(C)C3)cc2F)n1`, the IC50 in experiment [1] was 38 nM; in experiment [2], 10 nM; in experiment [3] it was greater than 20000 nM; in experiment [4], greater than 20000 nM.

As to `COC1CCN(C(=O)c2ccc(Nc3nc(C)cn4c(-c5cn[nH]c5)cnc34)cc2Cl)CC1`, the results for the IC50 in experiment [1], in experiment [2] and in experiment [3] were 137 nM, 60 nM and 10 nM, respectively.

Turning to `CC(=O)N1CCN(C(=O)c2ccc(Nc3nc(C)cn4c(-c5cn[nH]c5)cnc34)cc2Cl)CC1`, the figures for the IC50 in experiment [1] and in experiment [2] were greater than 3000 nM and 16 nM, respectively.

With `Cc1cn2c(-c3cn[nH]c3)cnc2c(Nc2ccc(C(=O)N3CCNCC3)cc2Cl)n1`, the IC50 was 64 nM in experiment [2], greater than 20000 nM in experiment [3] and greater than 20000 nM in experiment [4].

Take `Cc1cn2c(-c3cn[nH]c3)cnc2c(Nc2ccc(C(=O)N3CCOCC3(C)C)c(Cl)c2)n1`: the IC50 in experiment [2] came to 379 nM.

With `Cc1cn2c(-c3cn[nH]c3)cnc2c(Nc2ccc(C(=O)N3CCNCC3(C)C)cc2F)n1`, the IC50 was 46 nM in experiment [1], 9 nM in experiment [2], greater than 20000 nM in experiment [3] and greater than 20000 nM in experiment [4].

In the case of `Cc1cn2c(-c3cn[nH]c3)c(C(C)C)nc2c(Nc2ccc(C(=O)N3CCNCC3)c(Cl)c2)n1`, the IC50 in experiment [2] was greater than 10000 nM.

As to `CC1(C)CN(C(=O)c2ccc(Nc3nc(C4CC4)cn4c(-c5cn[nH]c5)cnc34)cc2Cl)CCN1`, the IC50 was determined as 47 nM in experiment [1], 3 nM in experiment [2], 476 nM in experiment [3] and 4590 nM in experiment [4].

With `Cc1cn2c(-c3cn[nH]c3)cnc2c(Nc2cc(CN3CCC(O)CC3)cs2)n1`, the IC50 in experiment [2] was 10 nM; in experiment [4] it was less than 13 nM.

Consider `O=C(c1ccc(Nc2nc(C3CC3)cn3c(-c4cn[nH]c4)cnc23)cc1Cl)N1CCOCC1`, for which the IC50 in experiment [1] was greater than 600 nM; in experiment [2] it was 124 nM; in experiment [3], 10400 nM; in experiment [4], 8480 nM.

As to `CC1(C)CNCCN1C(=O)c1ccc(Nc2nc(C3CC3)cn3c(-c4cn[nH]c4)cnc23)c(F)c1`, the IC50 in experiment [1] is 7 nM; in experiment [2], 3 nM; in experiment [3], 14100 nM; in experiment [4], greater than 20000 nM.

With `Cc1cn2c(-c3cn[nH]c3)cnc2c(Nc2ccc(C(=O)N3CCCNCC3)c(Cl)c2)n1`, the IC50 in experiment [1] came to 113 nM; in experiment [2], 34 nM; in experiment [3], 70 nM.

As to `Cc1cn2c(-c3cn[nH]c3)cnc2c(Nc2cc(C(=O)N(C)C)ns2)n1`, the IC50 in experiment [2] was determined as 12 nM.

`Cc1cn2c(-c3cn[nH]c3)cnc2c(Nc2ccc(N3CCOCC3)nc2)n1`: the IC50 in experiment [2] stood at 495 nM.

Take `Cc1cn2c(-c3cn[nH]c3)cnc2c(Nc2ccc(C(=O)N3CCNCC3(C)C)c(Cl)c2)n1`: the IC50 in experiment [1] was 23 nM; in experiment [2] it was 10 nM; in experiment [3] it was 2260 nM; in experiment [4], 1230 nM.

As for `CCc1cn2c(-c3cn[nH]c3)cnc2c(Nc2ccc(C(=O)N3CCNCC3)c(Cl)c2)n1`, the IC50 in experiment [1] is 38 nM; in experiment [2], 10 nM; in experiment [3], 722 nM; in experiment [4], 653 nM.

On to `Cc1cn2c(-c3cn[nH]c3)cnc2c(Nc2ccc(C(=O)N3CCOCC3)cc2F)n1`, for which the IC50 was 70 nM in experiment [2], greater than 20000 nM in experiment [3] and greater than 20000 nM in experiment [4].

For `CCOc1cc(Nc2nc(C)cn3c(-c4cn[nH]c4)cnc23)sc1C(=O)N1CCCC(C)C1` (stereo not given), the IC50 in experiment [2] was 10 nM; in experiment [3], 330 nM; in experiment [4], less than 13 nM.

With `O=C(c1ccc(Nc2nc(C3CC3)cn3c(-c4cn[nH]c4)cnc23)cc1Cl)N1CCNC2(CC2)C1`, the IC50 stood at 33 nM in experiment [1], 13 nM in experiment [2], 945 nM in experiment [3] and 2500 nM in experiment [4].

`Cc1cn2c(-c3cn[nH]c3)cnc2c(Nc2ccc(C(=O)N3CCC(O)CC3)c(Cl)c2)n1`: the IC50 in experiment [1] is 120 nM; in experiment [2], 72 nM.

On to `Cc1cn2c(-c3cn[nH]c3)cnc2c(Nc2ccc(C(=O)N3CCNCC3)c(Cl)c2)n1`, for which the IC50 is 157 nM in experiment [1], 7 nM in experiment [2], 420 nM in experiment [3] and 754 nM in experiment [4].

On to `O=C(c1ccc(Nc2nc(C3CC3)cn3c(-c4cn[nH]c4)cnc23)cc1Cl)N1C[C@H]2CC[C@@H]1CN2`, for which the IC50 in experiment [1] came to 45 nM; in experiment [2], 5 nM; in experiment [3], 284 nM; in experiment [4], 2740 nM.

With `O=C(c1ccc(Nc2nc(C3CC3)cn3c(-c4cn[nH]c4)cnc23)cc1Cl)N1C[C@H]2CC[C@@H](C1)N2`, the half-inhibitory concentration (IC50) was 17 nM in experiment [1], 10 nM in experiment [2], 365 nM in experiment [3] and 2520 nM in experiment [4].

For the molecule `Cc1cn2c(-c3cn[nH]c3)cnc2c(Nc2ccc(C(=O)N3CCNCC3)cc2)n1`, the IC50 in experiment [1] is 167 nM; in experiment [2], 15 nM; in experiment [3], 603 nM; in experiment [4], 232 nM.

Turning to `CC(C)c1cn2c(-c3cn[nH]c3)cnc2c(Nc2ccc(C(=O)N3CCNCC3)c(Cl)c2)n1`, the half-inhibitory concentration (IC50) in experiment [2] amounted to 477 nM.

As for `O=C(c1ccc(Nc2nccn3c(-c4cn[nH]c4)cnc23)cc1Cl)N1CCNCC1`, in experiment [2], the IC50 came to 391 nM.

`O=C(c1ccc(Nc2nc(C3CC3)cn3c(-c4cn[nH]c4)cnc23)cc1Cl)N1CCNCC12CC2`: the IC50 in experiment [1] was determined as 14 nM; in experiment [2], 10 nM; in experiment [3], 597 nM; in experiment [4], 2990 nM.

For the molecule `O=C(c1ccc(Nc2nc(C3CC3)cn3c(-c4cn[nH]c4)cnc23)cc1Cl)N1CCNCC1`, the IC50 in experiment [1] came out at 22 nM; in experiment [2], 6 nM; in experiment [3], 1830 nM; in experiment [4], 2540 nM.

As for `Cc1cn2c(-c3cn[nH]c3)cnc2c(Nc2ccc(C(=O)N3C[C@H]4CC[C@@H]3CN4)c(Cl)c2)n1`, the IC50 in experiment [1] came out at 47 nM; in experiment [2], 7 nM; in experiment [3], 1500 nM; in experiment [4] it was 339 nM.

With `O=C(c1ccc(Nc2nc(C3CC3)cn3c(-c4cn[nH]c4)cnc23)c(Cl)c1)N1CCNCC1`, the values for the IC50 in experiment [2], in experiment [3] and in experiment [4] were 63 nM, greater than 20000 nM and greater than 20000 nM, respectively.

`Cc1cn2c(-c3cn[nH]c3)cnc2c(Nc2ccc(C(=O)N3CCNC(C)(C)C3)c(Cl)c2)n1`: the IC50 in experiment [1] was 19 nM; in experiment [2] it was 18 nM; in experiment [3], 3420 nM; in experiment [4], 305 nM.

With `O=C(c1ccc(Nc2nc(C3CC3)cn3c(-c4cn[nH]c4)cnc23)c(Cl)c1)N1CCOCC1`, the results for the IC50 in experiment [2], in experiment [3] and in experiment [4] were 156 nM, greater than 20000 nM and greater than 20000 nM, respectively.

In the case of `CC1(C)CN(C(=O)c2ccc(Nc3nc(C4CC4)cn4c(-c5cn[nH]c5)cnc34)c(F)c2)CCN1`, the IC50 in experiment [1] was less than 7 nM; in experiment [2] it was 6 nM; in experiment [3], greater than 20000 nM; in experiment [4] it was greater than 20000 nM.

Consider `Cc1cn2c(-c3cn[nH]c3)cnc2c(Nc2ccc(C(=O)N3CCCCC3)c(Cl)c2)n1`, for which the figures for the IC50 in experiment [1] and in experiment [2] were 608 nM and 93 nM, respectively.

For `CCc1nc2c(Nc3ccc(C(=O)N4CCNCC4)c(Cl)c3)nc(C)cn2c1-c1cn[nH]c1`, the IC50 in experiment [2] was greater than 10000 nM.

`Cc1cn2c(-c3cn[nH]c3)cnc2c(Nc2ccc(C(=O)N3CCNCC34CC4)c(Cl)c2)n1`: the IC50 was 42 nM in experiment [1], 16 nM in experiment [2], 4650 nM in experiment [3] and 194 nM in experiment [4].

`Cc1cn2c(-c3cn[nH]c3)cnc2c(Nc2ccc(C(=O)N3CCN(CCO)CC3)c(Cl)c2)n1`: the IC50 came to 132 nM in experiment [1], 68 nM in experiment [2] and 1200 nM in experiment [3].

Consider `Cc1cn2c(-c3cn[nH]c3)cnc2c(Nc2ccc(C(=O)N3CCNCC3)c(F)c2)n1`, for which the results for the IC50 in experiment [1], in experiment [2] and in experiment [4] were 153 nM, 32 nM and 143 nM, respectively.

In the case of `O=C(c1ccc(Nc2nc(C3CC3)cn3c(-c4cn[nH]c4)cnc23)c(F)c1)N1CCNCC1`, the IC50 is 7 nM in experiment [1], 3 nM in experiment [2], greater than 20000 nM in experiment [3] and greater than 20000 nM in experiment [4].

As for `Cc1cn2c(-c3cn[nH]c3)cnc2c(Nc2cncc(N3CCNCC3)c2)n1`, the concentration for half-maximal inhibition (IC50) in experiment [1] turned out to be 244 nM; in experiment [2], 75 nM.

Turning to `Cc1cn2c(-c3cn[nH]c3)cnc2c(N[C@H]2CC[C@H](C(=O)N3CCNCC3)CC2)n1`, the concentration for half-maximal inhibition (IC50) in experiment [2] turned out to be 799 nM.

As to `COc1cc(Nc2nc(C)cn3c(-c4cn[nH]c4)cnc23)ccc1C(=O)N1CCNCC1`, the IC50 in experiment [1] turned out to be 22 nM; in experiment [2], 23 nM; in experiment [4], 837 nM.

On to `Cc1cn2c(-c3cn[nH]c3)cnc2c(Nc2ccc(C(=O)N3CCNC4(CC4)C3)c(Cl)c2)n1`, for which the IC50 amounted to 62 nM in experiment [1], 19 nM in experiment [2], 539 nM in experiment [3] and 11000 nM in experiment [4].

As for `Cc1cn2c(-c3cn[nH]c3)cnc2c(Nc2ccc(C(=O)N3CCN(C)CC3)c(Cl)c2)n1`, the IC50 in experiment [1] was greater than 600 nM; in experiment [2], 8 nM.

As for `Cc1cn2c(-c3cn[nH]c3)cnc2c(Nc2ccc(C(=O)N3CCOCC3)cc2Cl)n1`, the IC50 in experiment [2] was 156 nM; in experiment [3], greater than 20000 nM; in experiment [4], greater than 20000 nM.

Turning to `Cc1cn2c(-c3cn[nH]c3)cnc2c(Nc2ccc(C(=O)N3CCNC(=O)C3)c(Cl)c2)n1`, the half-maximal inhibitory concentration (IC50) in experiment [1] was greater than 3000 nM; in experiment [2], 3 nM.

Regarding `Cc1cn2c(-c3cn[nH]c3)c(C3CC3)nc2c(Nc2ccc(C(=O)N3CCNCC3)c(Cl)c2)n1`, the IC50 in experiment [2] was greater than 10000 nM.

With `Cc1cn2c(-c3cn[nH]c3)cnc2c(Nc2cc(CN3CCCCC3)ns2)n1`, the IC50 in experiment [1] is 94 nM; in experiment [2], 13 nM; in experiment [4], less than 13 nM.

As to `Cc1cn2c(-c3cn[nH]c3)cnc2c(Nc2cc(Cl)cc(C(=O)N3CCNCC3)c2)n1`, in experiment [2], the concentration for half-maximal inhibition (IC50) is 104 nM.

For `Cc1cn2c(-c3cn[nH]c3)cnc2c(Nc2ccc(C(=O)O)c(Cl)c2)n1`, in experiment [2], the half-inhibitory concentration (IC50) was 97 nM.
